{
  "source": "patent US20110117106A1",
  "about": "“USES OF CALPAIN INHIBITORS TO INHIBIT INFLAMMATION” (priority 2008, published 2011)",
  "key": {"[1]": {"system": "PMN transmigration across 16HBE airway epithelial monolayers", "assay": "PMN transmigration across polarized 16HBE monolayers (myeloperoxidase readout)", "assay_type": "cell-based, human", "conditions": "20 μM calpeptin", "description": "Human PMNs were isolated according to standard techniques from venous blood from healthy consenting adults in accordance with a protocol approved by the Institutional Review Board of Human Subjects at Columbia University (IRB-AAAC5450). PMNs were isolated using dextran sedimentation and Hypaque-Ficoll (Sigma) density-gradient separation, followed by hypotonic lysis of erythrocytes as previously described (Boyum et al, 1968). Purified PMNs were resuspended in HBSS with Ca^2+ and Mg^2+ before use in migration experiments. Migration assays were performed across 16HBE monolayers plated on the underside of 3 μm transwells which were coated with minimal essential media containing 0.01 mg/ml fibronectin, 0.03 mg/ml bovine collagen type I, 0.1 mg/ml BSA. After allowing the cells to adhere overnight, transwells were flipped over and inserted into 24-well plates. 500 μl of media was added to the lower chamber (apical surface of the cell) and 100 μl of media added to the transwell (basolateral surface of the cell). When the cells became confluent, they were polarized with an air liquid interface for 5 days by removing the 500 μl of media in the lower chamber. Selected wells were preincubated for 30 min with 20 μM calpeptin in the apical and basolateral chambers. Monolayers were stimulated with 250 μl heat killed PAO1 (10^7 CFU) or […] […]"}, "PMNs": {"system": "PMNs", "assay": "PMN migration across a porous Transwell without epithelial cells", "assay_type": "cell-based, human", "set-up": "dose or concentration left out as unconfirmed", "conditions": "in response to live PAO1, heat-killed PAO1 or fMLP"}, "[2]": {"target": "T1, recombinant human myeloperoxidase (Homo sapiens, UniProt P05164)", "T1 construct": "purchased R&D", "T1 sequence (P05164 49-745)": "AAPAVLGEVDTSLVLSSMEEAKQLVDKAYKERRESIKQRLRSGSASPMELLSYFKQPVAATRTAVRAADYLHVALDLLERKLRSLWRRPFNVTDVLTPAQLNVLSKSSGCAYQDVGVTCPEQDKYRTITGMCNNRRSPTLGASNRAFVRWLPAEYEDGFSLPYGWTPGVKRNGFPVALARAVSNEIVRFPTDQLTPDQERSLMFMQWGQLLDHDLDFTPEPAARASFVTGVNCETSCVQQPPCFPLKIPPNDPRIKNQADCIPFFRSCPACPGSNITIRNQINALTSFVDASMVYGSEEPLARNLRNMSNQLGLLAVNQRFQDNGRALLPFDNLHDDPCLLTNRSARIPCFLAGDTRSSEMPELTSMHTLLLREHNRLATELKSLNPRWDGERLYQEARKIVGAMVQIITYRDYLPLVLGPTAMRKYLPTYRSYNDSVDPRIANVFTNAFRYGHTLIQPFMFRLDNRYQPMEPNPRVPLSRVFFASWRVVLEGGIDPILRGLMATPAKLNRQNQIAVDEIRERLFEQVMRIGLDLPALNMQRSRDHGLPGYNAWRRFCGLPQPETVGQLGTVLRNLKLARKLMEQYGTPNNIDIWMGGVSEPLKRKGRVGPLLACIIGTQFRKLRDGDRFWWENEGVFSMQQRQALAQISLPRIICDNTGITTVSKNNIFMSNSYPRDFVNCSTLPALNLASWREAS", "assay": "Myeloperoxidase assay with recombinant enzyme", "assay_type": "biochemical", "conditions": "0.0125 μg/ml enzyme, 20 μM calpeptin"}, "[3]": {"system": "PMN recruitment into the lung", "assay": "Neonatal mouse model of intranasal P. aeruginosa PAO1 infection", "assay_type": "in vivo", "protocol": "Seven day old C57BL/6 wild type or tlr2^−/− mice (Jackson Laboratories) were intranasally inoculated with 10 μl PAO1 (10^8 CFU) (Tang et al, 1996). Control mice received 10 μl of PBS. Mice were pretreated with 20 mg/kg calpeptin or DMSO in PBS by intraperitoneal (i.p.) route 16 h and 2 h before intranasal inoculation and a third dose was administered by i.p. route 30 min post infection. Lungs were harvested 4 h after infection and cell suspensions used for PMN detection and immunoblotting. For neutrophil detection, lung cell suspensions were double stained with phycoerythrin (PE)-labeled anti-CD45 (to detect leukocytes) and fluorescein isothiocyanate (FITC)-labeled anti-Ly6G antibodies (to detect neutrophils) (BD Pharmingen) and analyzed by flow cytometry with a FACSCalibur using Cell Quest software (Becton Dickinson) (Gomez et al, 2004). Irrelevant, isotype-matched antibodies were used as a control. Cells were gated on the basis of their forward scatter and side scatter profile and analyzed for double expression of CD45 and Ly6G. Immunoblots were performed on 10 μg of protein obtained by lysing lung cells in OGP buffer as described herein for 1HAEo-cells. Mice protocol number AAAA5999 was approved by the Institutional Animal Care and Use Committee at Columbia University."}, "[4]": {"system": "PMN recruitment into the lung and airway lumen", "assay": "Adult C57BL/6 mouse P. aeruginosa infection with bronchoalveolar lavage", "assay_type": "in vivo", "conditions": "adult C57BL/6, i.p. calpeptin, 2 hr infection, versus vehicle", "protocol": "To test the effects of calpain inhibition on the transmigration of PMNs into P. aeruginosa-infected airways, bronchoalveolar lavage (BAL) experiments were performed on adult C57BL/6 mice. Mice were treated with i.p. calpeptin or vehicle and intranasally infected with P. aeruginosa for 2 hr. PMNs from BAL or whole-lung suspension were quantified by flow cytometry. Compared to vehicle-treated controls, calpeptin-treated mice had 37% fewer PMNs recruited into the whole lung and 90% fewer into the airway lumen, indicating a more pronounced effect on the epithelial junctions (FIG. 8D). […] Thus, recruitment of PMNs into the murine lung and airway lumen in response to P. aeruginosa is facilitated by calpain activity and its effects on junctional proteins at the mucosal surface."}, "PMN myeloperoxidase": {"target": "PMN myeloperoxidase (Homo sapiens, UniProt P05164)", "assay": "Myeloperoxidase activity of PMNs", "conditions": "10^4 PMNs, 20 μM calpeptin"}},
  "note": "Entries after “also recorded” stand apart in the source; their conditions may differ.",
  "data": [
    {"smiles": "CCCC[C@@H](C=O)NC(=O)[C@H](CC(C)C)NC(=O)OCc1ccccc1", "note": "[calpeptin, Z-Leu-Nle-CHO]", "values": [
      {"measurement": "Heat killed P. aeruginosa PAO1 induced PMN transmigration", "setting": "[1]; p<0.001", "value": "inhibited"},
      {"measurement": "P3C-induced PMN transmigration", "setting": "[1]; p<0.05", "value": "inhibited"},
      {"measurement": "Migration of PMNs across a porous Transwell (without epithelial cells)", "setting": "PMNs", "value": "no effect; also recorded: not affected"},
      {"measurement": "Migration of PMNs across a porous Transwell (without epithelial cells)", "setting": "PMNs; listed as Calpeptin", "value": "did not directly inhibit"},
      {"measurement": "Myeloperoxidase activity of recombinant human myeloperoxidase", "setting": "[2]", "value": "nor did calpeptin inhibit; also recorded: not inhibited"},
      {"measurement": "Fewer PMNs recruited into the lung", "setting": "[3]; 7-day old mice, i.p. calpeptin, 4 hours following intranasal P. aeruginosa, versus vehicle-treated, p<0.05", "value": 31, "unit": "%"},
      {"measurement": "Occludin and E-cadherin cleavage products in whole lung lysates", "setting": "[3]; infected wild type mice, i.p. calpeptin versus vehicle", "value": "substantially decreased"},
      {"measurement": "PMN recruitment in tlr2−/− animals", "setting": "[3]; tlr2−/− pups, calpain inhibition", "value": "not further diminished"},
      {"measurement": "Fewer PMNs recruited into the airway lumen (BAL)", "setting": "[4]", "value": 90, "unit": "%"},
      {"measurement": "Fewer PMNs recruited into the whole lung", "setting": "[4]", "value": 37, "unit": "%"},
      {"measurement": "Myeloperoxidase activity / production by PMNs", "setting": "PMN myeloperoxidase", "value": "not inhibited"}
    ]}
  ]
}
